# PubChem BioAssay (NCI)
#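 These data come from cells grown in 96-well plates and exposed to compound for 48 hours at five concentrations. Abbreviation: GI50, concentration required for 50% inhibition of growth. Definition used: TGI = concentration required for complete inhibition of growth.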
# Legend:
# Experiment in all cases: DTP human tumour cell line panel, 48 h
# 786-0 renal = tested on: 786-0 renal
# A498 renal = tested on: A498 renal
# A549 NSCLC = tested on: A549 NSCLC
# ACHN renal = tested on: ACHN renal
# BT-549 breast = tested on: BT-549 breast
# CAKI-1 renal = tested on: CAKI-1 renal
# COLO 205 colon = tested on: COLO 205 colon
# DU-145 prostate = tested on: DU-145 prostate
# EKVX NSCLC = tested on: EKVX NSCLC
# HCC-2998 colon = tested on: HCC-2998 colon
# HCT-116 colon = tested on: HCT-116 colon
# HCT-15 colon = tested on: HCT-15 colon
# HL-60(TB) leukemia = tested on: HL-60(TB) leukemia
# HOP-62 NSCLC = tested on: HOP-62 NSCLC
# HS 578T breast = tested on: HS 578T breast
# HT29 colon = tested on: HT29 colon
# IGROV1 ovarian = tested on: IGROV1 ovarian
# K-562 leukemia = tested on: K-562 leukemia
# KM12 colon = tested on: KM12 colon
# LOX IMVI melanoma = tested on: LOX IMVI melanoma
# M14 melanoma = tested on: M14 melanoma
# MALME-3M melanoma = tested on: MALME-3M melanoma
# MCF7 breast = tested on: MCF7 breast
# MDA-MB-231 breast = tested on: MDA-MB-231 breast
# MDA-MB-435 = tested on: MDA-MB-435
# MOLT-4 leukemia = tested on: MOLT-4 leukemia
# NCI-H226 lung = tested on: NCI-H226 lung
# NCI-H23 lung = tested on: NCI-H23 lung
# NCI-H460 lung = tested on: NCI-H460 lung
# NCI-H522 lung = tested on: NCI-H522 lung
# NCI/ADR-RES ovarian = tested on: NCI/ADR-RES ovarian
# OVCAR-3 ovarian = tested on: OVCAR-3 ovarian
# OVCAR-4 ovarian = tested on: OVCAR-4 ovarian
# OVCAR-5 ovarian = tested on: OVCAR-5 ovarian
# OVCAR-8 ovarian = tested on: OVCAR-8 ovarian
# PC-3 prostate = tested on: PC-3 prostate
# RPMI-8226 leukemia = tested on: RPMI-8226 leukemia
# RXF 393 renal = tested on: RXF 393 renal
# SF-268 CNS = tested on: SF-268 CNS
# SF-295 CNS = tested on: SF-295 CNS
# SF-539 CNS = tested on: SF-539 CNS
# SK-MEL-2 melanoma = tested on: SK-MEL-2 melanoma
# SK-MEL-28 melanoma = tested on: SK-MEL-28 melanoma
# SK-MEL-5 melanoma = tested on: SK-MEL-5 melanoma
# SK-OV-3 ovarian = tested on: SK-OV-3 ovarian
# SN12C renal = tested on: SN12C renal
# SNB-19 CNS = tested on: SNB-19 CNS
# SNB-75 CNS = tested on: SNB-75 CNS
# SR leukemia = tested on: SR leukemia
# SW-620 colon = tested on: SW-620 colon
# T-47D breast = tested on: T-47D breast
# TK-10 renal = tested on: TK-10 renal
# U251 CNS = tested on: U251 CNS
# UACC-257 melanoma = tested on: UACC-257 melanoma
# UACC-62 melanoma = tested on: UACC-62 melanoma
# UO-31 renal = tested on: UO-31 renal
compound,measurement,setting,value
Cn1cccc1-c1cc(-c2ccccc2)nc(N)c1C#N,GI50,786-0 renal,> 96.4 µM
same,TGI,786-0 renal,> 100 µM
same,GI50,A498 renal,36.8 µM
same,TGI,A498 renal,> 100 µM
same,GI50,A549 NSCLC,> 100 µM
same,TGI,A549 NSCLC,> 100 µM
same,GI50,ACHN renal,> 100 µM
same,TGI,ACHN renal,> 100 µM
same,GI50,BT-549 breast,67.5 µM
same,TGI,BT-549 breast,> 100 µM
same,GI50,CAKI-1 renal,> 100 µM
same,TGI,CAKI-1 renal,> 100 µM
same,GI50,COLO 205 colon,> 100 µM
same,TGI,COLO 205 colon,> 100 µM
same,GI50,DU-145 prostate,97.5 µM
same,TGI,DU-145 prostate,> 100 µM
same,GI50,EKVX NSCLC,98.1 µM
same,TGI,EKVX NSCLC,> 100 µM
same,GI50,HCC-2998 colon,> 100 µM
same,TGI,HCC-2998 colon,> 100 µM
same,GI50,HCT-116 colon,> 100 µM
same,TGI,HCT-116 colon,> 100 µM
same,GI50,HCT-15 colon,> 100 µM
same,TGI,HCT-15 colon,> 100 µM
same,GI50,HL-60(TB) leukemia,0.761 µM
same,TGI,HL-60(TB) leukemia,> 100 µM
same,GI50,HOP-62 NSCLC,84.6 µM
same,TGI,HOP-62 NSCLC,> 100 µM
same,GI50,HS 578T breast,> 28.8 µM
same,TGI,HS 578T breast,> 100 µM
same,GI50,HT29 colon,> 100 µM
same,TGI,HT29 colon,> 100 µM
same,GI50,IGROV1 ovarian,> 100 µM
same,TGI,IGROV1 ovarian,> 100 µM
same,GI50,K-562 leukemia,> 100 µM
same,TGI,K-562 leukemia,> 100 µM
same,GI50,KM12 colon,> 100 µM
same,TGI,KM12 colon,> 100 µM
same,GI50,LOX IMVI melanoma,> 100 µM
same,TGI,LOX IMVI melanoma,> 100 µM
same,GI50,M14 melanoma,> 100 µM
same,TGI,M14 melanoma,> 100 µM
same,GI50,MALME-3M melanoma,> 100 µM
same,TGI,MALME-3M melanoma,> 100 µM
same,GI50,MCF7 breast,> 100 µM
same,TGI,MCF7 breast,> 100 µM
same,GI50,MDA-MB-231 breast,> 82 µM
same,TGI,MDA-MB-231 breast,> 100 µM
same,GI50,MDA-MB-435,> 100 µM
same,TGI,MDA-MB-435,> 100 µM
same,GI50,MOLT-4 leukemia,> 70 µM
same,TGI,MOLT-4 leukemia,> 100 µM
same,GI50,NCI-H226 lung,> 46.4 µM
same,TGI,NCI-H226 lung,> 100 µM
same,GI50,NCI-H23 lung,> 100 µM
same,TGI,NCI-H23 lung,> 100 µM
same,GI50,NCI-H460 lung,> 100 µM
same,TGI,NCI-H460 lung,> 100 µM
same,GI50,NCI-H522 lung,> 78.2 µM
same,TGI,NCI-H522 lung,> 100 µM
same,GI50,NCI/ADR-RES ovarian,> 100 µM
same,TGI,NCI/ADR-RES ovarian,> 100 µM
same,GI50,OVCAR-3 ovarian,> 67.7 µM
same,TGI,OVCAR-3 ovarian,> 100 µM
same,GI50,OVCAR-4 ovarian,> 68.6 µM
same,TGI,OVCAR-4 ovarian,> 100 µM
same,GI50,OVCAR-5 ovarian,> 100 µM
same,TGI,OVCAR-5 ovarian,> 100 µM
same,GI50,OVCAR-8 ovarian,> 100 µM
same,TGI,OVCAR-8 ovarian,> 100 µM
same,GI50,PC-3 prostate,> 100 µM
same,TGI,PC-3 prostate,> 100 µM
same,GI50,RPMI-8226 leukemia,55.9 µM
same,TGI,RPMI-8226 leukemia,> 100 µM
same,GI50,RXF 393 renal,> 100 µM
same,TGI,RXF 393 renal,> 100 µM
same,GI50,SF-268 CNS,> 100 µM
same,TGI,SF-268 CNS,> 100 µM
same,GI50,SF-295 CNS,> 86.3 µM
same,TGI,SF-295 CNS,> 100 µM
same,GI50,SF-539 CNS,> 58.3 µM
same,TGI,SF-539 CNS,> 100 µM
same,GI50,SK-MEL-2 melanoma,> 100 µM
same,TGI,SK-MEL-2 melanoma,> 100 µM
same,GI50,SK-MEL-28 melanoma,> 100 µM
same,TGI,SK-MEL-28 melanoma,> 100 µM
same,GI50,SK-MEL-5 melanoma,98.7 µM
same,TGI,SK-MEL-5 melanoma,> 100 µM
same,GI50,SK-OV-3 ovarian,> 100 µM
same,TGI,SK-OV-3 ovarian,> 100 µM
same,GI50,SN12C renal,> 76.8 µM
same,TGI,SN12C renal,> 100 µM
same,GI50,SNB-19 CNS,> 89.5 µM
same,TGI,SNB-19 CNS,> 100 µM
same,GI50,SNB-75 CNS,> 43 µM
same,TGI,SNB-75 CNS,> 87.9 µM
same,GI50,SR leukemia,40.8 µM
same,TGI,SR leukemia,> 100 µM
same,GI50,SW-620 colon,> 100 µM
same,TGI,SW-620 colon,> 100 µM
same,GI50,T-47D breast,> 100 µM
same,TGI,T-47D breast,> 100 µM
same,GI50,TK-10 renal,> 100 µM
same,TGI,TK-10 renal,> 100 µM
same,GI50,U251 CNS,> 100 µM
same,TGI,U251 CNS,> 100 µM
same,GI50,UACC-257 melanoma,> 100 µM
same,TGI,UACC-257 melanoma,> 100 µM
same,GI50,UACC-62 melanoma,34.5 µM
same,TGI,UACC-62 melanoma,> 100 µM
same,GI50,UO-31 renal,> 100 µM
same,TGI,UO-31 renal,> 100 µM
